# Measured values reported in patent US20110294778A1, “HEPATITIS C INHIBITOR COMPOUNDS” (priority 2009, published 2011).
# Key:
# [1] = tested on: HCV genotype 1a (strain H77) subgenomic replicon with NS3 resistance mutation R155K in Huh-7 cells; assay: HCV replicon RNA replication assay (NS3 protease variants), genotype 1a R155K; assay type: cell-based; conditions: Hepatitis C virus, Huh-7, 72 h, read-out: R155K 1a EC50 (nM)
# [2] = tested on: HCV genotype 1b (Con-1) subgenomic replicon with NS3 resistance mutation D168V in Huh-7 cells; assay: HCV replicon RNA replication assay (NS3 protease variants), genotype 1b D168V; assay type: cell-based; conditions: Hepatitis C virus, Huh-7, 72 h, read-out: D168V 1b EC50 (nM)
SMILES,EC50 [1] [nM],EC50 [2] [nM]
"CCOc1ccc2c(O[C@@H]3C[C@H]4C(=O)N[C@]5(C(=O)NS(=O)(=O)C6(C)CC6)C[C@H]5/C=C\CCCCC[C@H](NC(=O)c5ccn(C)n5)C(=O)N4C3)cc(OC(C)C)nc2c1Cl [Compound 1001, (2R,6S,12Z,13aS,14aR,16aS)-2-{[8-chloro-7-ethoxy-2-(propan-2-yloxy)quinolin-4-yl]oxy}-N-[(1-methylcyclopropyl)sulfonyl]-6-{[(1-methyl-1H-pyrazol-3-yl)carbonyl]amino}-5,16-dioxo-1,2,3,6,7,8,9,10,11,13a,14,15,16,16a-tetradecahydrocyclopropa[e]pyrrolo[1,2-a][1,4]diazacyclopentadecine-14a(5H)-carboxamide]",2.6,0.33
"COc1ccc2c(O[C@@H]3C[C@H]4C(=O)N[C@]5(C(=O)NS(=O)(=O)C6CC6)C[C@H]5/C=C\CCCCC[C@H](NC(=O)c5ccn(CC(=O)N(C)C)n5)C(=O)N4C3)cc(OC(C)C)nc2c1C [Compound 1002, (2R,6S,12Z,13aS,14aR,16aS)-N-(cyclopropylsulfonyl)-6-[({1-[2-(dimethylamino)-2-oxoethyl]-1H-pyrazol-3-yl}carbonyl)amino]-2-{[7-methoxy-8-methyl-2-(propan-2-yloxy)quinolin-4-yl]oxy}-5,16-dioxo-1,2,3,6,7,8,9,10,11,13a,14,15,16,16a-tetradecahydrocyclopropa[e]pyrrolo[1,2-a][1,4]diazacyclopentadecine-14a(5H)-carboxamide]",2.6,3
"COc1ccc2c(O[C@@H]3C[C@H]4C(=O)N[C@]5(C(=O)NS(=O)(=O)C6CC6)C[C@H]5/C=C\CCCCC[C@H](NC(=O)c5ccn(C)n5)C(=O)N4C3)cc(OC(C)C)nc2c1C [Compound 1003, (2R,6S,12Z,13aS,14aR,16aS)-N-(cyclopropylsulfonyl)-2-{[7-methoxy-8-methyl-2-(propan-2-yloxy)quinolin-4-yl]oxy}-6-{[(1-methyl-1H-pyrazol-3-yl)carbonyl]amino}-5,16-dioxo-1,2,3,6,7,8,9,10,11,13a,14,15,16,16a-tetradecahydrocyclopropa[e]pyrrolo[1,2-a][1,4]diazacyclopentadecine-14a(5H)-carboxamide]",4.3,0.29
"COc1ccc2c(O[C@@H]3C[C@H]4C(=O)N[C@]5(C(=O)NS(=O)(=O)C6(C)CC6)C[C@H]5/C=C\CCCCC[C@H](NC(=O)c5ccc(C)s5)C(=O)N4C3)cc(OC(C)C)nc2c1C [Compound 1004, (2R,6S,12Z,13aS,14aR,16aS)-2-{[7-methoxy-8-methyl-2-(propan-2-yloxy)quinolin-4-yl]oxy}-N-[(1-methylcyclopropyl)sulfonyl]-6-{[(5-methylthiophen-2-yl)carbonyl]amino}-5,16-dioxo-1,2,3,6,7,8,9,10,11,13a,14,15,16,16a-tetradecahydrocyclopropa[e]pyrrolo[1,2-a][1,4]diazacyclopentadecine-14a(5H)-carboxamide]",2.8,0.22
"COc1ccc2c(O[C@@H]3C[C@H]4C(=O)N[C@]5(C(=O)NS(=O)(=O)C6(C)CC6)C[C@H]5/C=C\CCCCC[C@H](NC(=O)c5ccn(C)n5)C(=O)N4C3)cc(OC(C)C)nc2c1OC [Compound 1005, (2R,6S,12Z,13aS,14aR,16aS)-2-{[7,8-dimethoxy-2-(propan-2-yloxy)quinolin-4-yl]oxy}-N-[(1-methylcyclopropyl)sulfonyl]-6-{[(1-methyl-1H-pyrazol-3-yl)carbonyl]amino}-5,16-dioxo-1,2,3,6,7,8,9,10,11,13a,14,15,16,16a-tetradecahydrocyclopropa[e]pyrrolo[1,2-a][1,4]diazacyclopentadecine-14a(5H)-carboxamide]",2.5,2
"COCCn1ccc(C(=O)N[C@H]2CCCCC/C=C\[C@@H]3C[C@@]3(C(=O)NS(=O)(=O)C3CC3)NC(=O)[C@@H]3C[C@@H](Oc4cc(OC(C)C)nc5c(C)c(OC)ccc45)CN3C2=O)n1 [Compound 1006, (2R,6S,12Z,13aS,14aR,16aS)-N-(cyclopropylsulfonyl)-6-({[1-(2-methoxyethyl)-1H-pyrazol-3-yl]carbonyl}amino)-2-{[7-methoxy-8-methyl-2-(propan-2-yloxy)quinolin-4-yl]oxy}-5,16-dioxo-1,2,3,6,7,8,9,10,11,13a,14,15,16,16a-tetradecahydrocyclopropa[e]pyrrolo[1,2-a][1,4]diazacyclopentadecine-14a(5H)-carboxamide]",7,0.33
"COc1ccc2c(O[C@@H]3C[C@H]4C(=O)N[C@]5(C(=O)NS(=O)(=O)C6CC6)C[C@H]5/C=C\CCCCC[C@H](NC(=O)c5ccc(C)s5)C(=O)N4C3)cc(OC(C)C)nc2c1C [Compound 1007, (2R,6S,12Z,13aS,14aR,16aS)-N-(cyclopropylsulfonyl)-2-{[7-methoxy-8-methyl-2-(propan-2-yloxy)quinolin-4-yl]oxy}-6-{[(5-methylthiophen-2-yl)carbonyl]amino}-5,16-dioxo-1,2,3,6,7,8,9,10,11,13a,14,15,16,16a-tetradecahydrocyclopropa[e]pyrrolo[1,2-a][1,4]diazacyclopentadecine-14a(5H)-carboxamide]",,0.25
"CC(C)Oc1cc(O[C@@H]2C[C@H]3C(=O)N[C@]4(C(=O)NS(=O)(=O)C5(C)CC5)C[C@H]4/C=C\CCCCC[C@H](NC(=O)c4ccn(C)n4)C(=O)N3C2)c2ccc(F)c(F)c2n1 [Compound 1008, (2R,6S,12Z,13aS,14aR,16aS)-2-{[7,8-difluoro-2-(propan-2-yloxy)quinolin-4-yl]oxy}-N-[(1-methylcyclopropyl)sulfonyl]-6-{[(1-methyl-1H-pyrazol-3-yl)carbonyl]amino}-5,16-dioxo-1,2,3,6,7,8,9,10,11,13a,14,15,16,16a-tetradecahydrocyclopropa[e]pyrrolo[1,2-a][1,4]diazacyclopentadecine-14a(5H)-carboxamide]",2.9,0.35
"COc1ccc2c(O[C@@H]3C[C@H]4C(=O)N[C@]5(C(=O)NS(=O)(=O)C6(C)CC6)C[C@H]5/C=C\CCCCC[C@H](NC(=O)c5cc[nH]n5)C(=O)N4C3)cc(OC(C)C)nc2c1C [Compound 1009, (2R,6S,12Z,13aS,14aR,16aS)-2-{[7-methoxy-8-methyl-2-(propan-2-yloxy)quinolin-4-yl]oxy}-N-[(1-methylcyclopropyl)sulfonyl]-5,16-dioxo-6-[(1H-pyrazol-3-ylcarbonyl)amino]-1,2,3,6,7,8,9,10,11,13a,14,15,16,16a-tetradecahydrocyclopropa[e]pyrrolo[1,2-a][1,4]diazacyclopentadecine-14a(5H)-carboxamide]",1.9,0.49
"COc1ccc2c(O[C@@H]3C[C@H]4C(=O)N[C@]5(C(=O)NS(=O)(=O)C6CC6)C[C@H]5/C=C\CCCCC[C@H](NC(=O)c5cc[nH]n5)C(=O)N4C3)cc(OC(C)C)nc2c1C [Compound 1016, (2R,6S,12Z,13aS,14aR,16aS)-N-(cyclopropylsulfonyl)-2-{[7-methoxy-8-methyl-2-(propan-2-yloxy)quinolin-4-yl]oxy}-5,16-dioxo-6-[(1H-pyrazol-3-ylcarbonyl)amino]-1,2,3,6,7,8,9,10,11,13a,14,15,16,16a-tetradecahydrocyclopropa[e]pyrrolo[1,2-a][1,4]diazacyclopentadecine-14a(5H)-carboxamide]",,0.92
